Reference: patent US5891917A, “Certain acrylonitrile-sulfonamide derivatives” (Sugen, Inc., priority 1997, dated 1999)
Read-outs that look alike come from different tables or passages of the source.

Tests used:
[1] = system: MCF7 cells; assay: MCF-7 SRB Growth Assay; assay type: cell-based; conditions: Homo sapiens, read-out: Growth Data: MCF7 10% FBS
Excerpt: (§1) The following examples illustrate the ability of the exemplary compounds to inhibit receptor tyrosine kinases, such as HER2 and/or EGFR. The following target cells were used for cellular kinase assays: NIH3T3 clone C7 (Honegger et al., supra) engineered to over-express human EGF receptor; NIH3T3 cells engineered to over-express a chimeric receptor containing the EGFR extracellular domain and the HER2 intracellular kinase domain; the human mammary carcinoma line BT474 (ATCC HTB2) expressing HER2; and the human glioblastoma line U1242 that expresses PDGFR-beta. Growth assays were carried out using human mammary epithelial SKBR3 (ATCC HTB30) cells (SKBR3 cells over-express HER2), SKOV3 (ATCC HTB77) human ovarian cancer cell line (SKOV3 cells also over-express HER2), A431 cells (A431 cells over-express EGFR) MCF7 human breast carcinoma cells, MCF7 cells overexpressing the HER2 kinase (MCF7-HER2), NIH3T3 cells, and NIH3T3 cells overexpressing the HER2 kinase (3T3-HER2.
MCF-7 cells are seeded at 2000 cells/well in a 96-well flat bottom plate in normal growth media, which was 10% FBS/RPMI supplemented with 2 mM Glutamine. The plate of cells is incubated for about 24 hours at […] after which it receives an equal volume of compound dilution per well making the total volume per well 200 μl. The compound is prepared at 2 times the desired highest final concentration and serially diluted in the normal growth media in a 96-well round bottom plate and then transferred to plate of cells. DMSO serves as the vector control up to 0.2% as final concentration. The cells are then incubated at 37° C. in a humidified 5% CO2 incubator.
Four days following dosing of compound, the media is 15 discarded and 200 μ/well of ice-cold 10% TCA (Trichloroacetic Acid) is added to fix cells. After 60 minutes at 4° C., the TCA is discarded and the plate is rinsed 5 times with water. The plate is then air-dried and 100 μl/well of 0.4% SRB (Sulforhodamine B from Sigma) 20 in 1% Acetic Acid is added to stain cells for 10 minutes at room temperature. The SRB is discarded and the plate is rinsed 5 times with 1% Acetic Acid. After the plate is completely dried, 100 μl/well of 10 mM Tris-base is added to solubilize the dye. After 5 to 10 minutes, the plate is read on a Dynatech ELISA Plate Reader at dual wavelengths at 570 nm and 630 nm.

[2] = system: 3T3/HER2 cells; assay: 3T3 Growth Assay (3T3/HER2); assay type: cell-based
Excerpt: as §1
The 3T3 growth assay was carried out as follows: […]
(1) HER2C7 (engineered to express HER2) and NIH3T3C7 (as the control) cells are used for this assay. NIH3T3C7 cells are seeded at 2500 cells/well, […] in 10% CS+2 mM GLN DMEM, in a 96 well plate; HER2C7 cells are seeded at 6000 cells/well, 100 μl/well in 2% FBS+2 mM GLN DMEM, in a 96 well plate. Cells are incubated at 37° C., 5% CO2 overnight to allow for cell attachment to the plate;
(2) The […] compound is added to the cells at day 2. The compounds are prepared in the appropriate growth medium (10% CS+2 mM) GLN DMEM for NIH3T3C7 cells; 2% FBS+2 mM GLN DMEM for HER2C7 cells) in a 96 well plate, and serially diluted. A total of 100 μl/well medium of the diluted compounds is added into the cells. The total volume of each well is 200 μl. Quadruplicates (wells) and 11 concentration points are applied to each compound tested.
(3) After the cells are treated with the compound for 4 days, the cells are washed with PBS and fixed with 200 μl/well ice-cold 10% TCA for one hour at 0°-5° C. condition.
(4) Remove TCA and rinse wells 5 times with deionized water. Dry plates upside down with paper towels. Stain cells with 0.4% SRB at 100 μl/well for 10 minutes.
(5) Pour off SRB and rinse plate 5 times with 1 % acetic acid. Dry plate completely.
(6) Solubilize the dye with 10 mM Tris-base at 100 μl/well for 10 minutes on a shaker.
(7) Read the plate at dual wavelengths at 570 nm and 630 nm on Dynatech Elisa plate reader.

[3] = read-out: Growth Data: 3T3/HER2 2% FBS
[4] = read-out: Growth Data: 3T3/HER2 10% FBS

With `CC(C)c1cc(/C=C(\C#N)S(=O)(=O)c2ccccc2)cc(C(C)C)c1O` [Compound 731] the IC50 [1] was 12 µM, the IC50 [2, 3] was 12 µM and the IC50 [2, 4] was 70 µM.

`CC(C)c1cc(/C=C(\C#N)S(=O)(=O)NCc2ccccc2)cc(C(C)C)c1O` [Compound 732] was tested, and the IC50 [1] was 13 µM, the IC50 [2, 3] was 15 µM and the IC50 [2, 4] was 95 µM.

For `N#C/C(=C\c1ccc(O)cc1Cl)S(=O)(=O)NCc1ccccc1` [Compound 733], the IC50 [1] was 65 µM, the IC50 [2, 3] was 60 µM and the IC50 [2, 4] was greater than 100 µM.

In the case of `N#C/C(=C\c1ccc(O)cc1Cl)S(=O)(=O)NCCCc1ccccc1` [Compound 734], the IC50 [1] is reported as 56 µM, the IC50 [2, 3] is reported as 55 µM and the IC50 [2, 4] is reported as greater than 100 µM.

Compound `CC(C)(C)c1cc(/C=C(\C#N)S(=O)(=O)Cc2cccc(C(F)(F)F)c2)cc(C(C)(C)C)c1O` [Compound 735] has an IC50 [1] of 0.7 µM, an IC50 [2, 3] of 5 µM and an IC50 [2, 4] of 22 µM.

Work on `CC(C)c1cc(/C=C(\C#N)S(=O)(=O)Cc2cccc(C(F)(F)F)c2)cc(C(C)C)c1O` [Compound 736] yielded an IC50 [1] of 8 µM, an IC50 [2, 3] of 18 µM and an IC50 [2, 4] of 55 µM.

In the case of `CC(C)c1cc(/C=C(\C#N)S(=O)(=O)c2cccs2)cc(C(C)C)c1O` [Compound 737], the IC50 [1] is reported as 16 µM, the IC50 [2, 3] is reported as 40 µM and the IC50 [2, 4] is reported as 90 µM.

With `CC(C)c1cc(/C=C(\C#N)S(=O)(=O)c2ccsc2)cc(C(C)C)c1O` [Compound 738] the IC50 [1] was 17 µM, the IC50 [2, 3] was 45 µM and the IC50 [2, 4] was greater than 100 µM.

`Cc1cc(/C=C(\C#N)S(=O)(=O)Cc2cccc(C(F)(F)F)c2)cc(C)c1O` [Compound 739] was tested, and the IC50 [1] was 35 µM.

`CC(C)(C)c1cc(/C=C(\C#N)S(=O)(=O)c2ccc(F)cc2)cc(C(C)(C)C)c1O` [Compound 740] gave an IC50 [1] of 0.2 µM, an IC50 [2, 3] of 3.8 µM and an IC50 [2, 4] of 20 µM.

In the case of `CC(C)c1cc(/C=C(\C#N)S(=O)(=O)c2ccc(F)cc2)cc(C(C)C)c1O` [Compound 741, (E)-3-(3,5-Diisopropyl-4-hydroxyphenyl)-2-(4-fluorophenylsulfonyl)acrylonitrile], the IC50 [1] is reported as 8 µM, the IC50 [2, 3] is reported as 15 µM and the IC50 [2, 4] is reported as 75 µM.

For `CC(C)(C)c1cc(/C=C(\C#N)S(=O)(=O)c2cccs2)cc(C(C)(C)C)c1O` [Compound 742], the IC50 [1] was 2 µM, the IC50 [2, 3] was 7 µM and the IC50 [2, 4] was 38 µM.

In the case of `Cc1cc(/C=C(\C#N)S(=O)(=O)c2ccc(F)cc2)cc(C)c1O` [Compound 744], the IC50 [1] is reported as greater than 100 µM, the IC50 [2, 3] is reported as greater than 100 µM and the IC50 [2, 4] is reported as greater than 100 µM.

For `CC(C)(C)c1cc(/C=C(\C#N)S(=O)(=O)c2ccsc2)cc(C(C)(C)C)c1O` [Compound 746], the IC50 [1] was 2 µM, the IC50 [2, 3] was 7 µM and the IC50 [2, 4] was 40 µM.

With `CC(C)c1cc(/C=C(\C#N)S(=O)(=O)c2ccccn2)cc(C(C)C)c1O` [Compound 747] the IC50 [1] was 55 µM, the IC50 [2, 3] was greater than 100 µM and the IC50 [2, 4] was greater than 100 µM.

`Cc1cc(/C=C(\C#N)S(=O)(=O)c2ccccc2)cc(C)c1O` [Compound 748] showed an IC50 [1] greater than 100 µM, an IC50 [2, 3] greater than 100 µM and an IC50 [2, 4] greater than 100 µM.
